The results in this text go back to patent publication US20240425473A2 (priority 2021, published 2024).

The subject of one data set is IFN-β promoter activity. It counts as cell-based, human. Particulars: for effect on IFN induction, compared with AE-1-10: 293T cells with SeV infection; for IFN induction: Sendai virus.
The target in data set [1] is T1, CTPS1 (Homo sapiens, UniProt P17812).
T1 sequence (P17812 1-591): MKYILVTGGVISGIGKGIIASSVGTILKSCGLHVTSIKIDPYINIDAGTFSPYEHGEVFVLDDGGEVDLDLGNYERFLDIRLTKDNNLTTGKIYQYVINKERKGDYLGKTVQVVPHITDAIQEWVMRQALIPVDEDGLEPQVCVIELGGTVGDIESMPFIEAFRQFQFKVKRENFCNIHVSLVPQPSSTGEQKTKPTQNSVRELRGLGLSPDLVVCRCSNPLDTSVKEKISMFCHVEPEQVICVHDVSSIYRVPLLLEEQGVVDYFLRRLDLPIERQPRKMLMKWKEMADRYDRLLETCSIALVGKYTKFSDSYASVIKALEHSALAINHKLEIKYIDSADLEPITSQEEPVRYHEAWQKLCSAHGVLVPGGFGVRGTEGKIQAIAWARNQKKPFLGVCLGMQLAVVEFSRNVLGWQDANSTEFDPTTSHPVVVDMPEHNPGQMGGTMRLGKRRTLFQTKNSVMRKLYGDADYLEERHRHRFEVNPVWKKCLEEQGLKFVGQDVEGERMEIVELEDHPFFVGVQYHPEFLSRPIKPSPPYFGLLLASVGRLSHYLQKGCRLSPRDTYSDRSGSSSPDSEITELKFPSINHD
It counts as binding. Particulars: 293T cells expressing Flag-CTPS1. Set-up: Flag; expressed in transfected cells; host or cells: 293T cells expressing Flag-CTPS1.

The subject of data set [2] is SARS-CoV-2. It counts as cell-based.
Data set [3] has as its system SARS-CoV-2. It counts as cell-based. The source holds these as a separate data set.
For another data set, the system named is IRF3 deamidation. The data set can be described thus: IRF3 deamidation by two-dimensional gel electrophoresis and immunoblotting. It counts as cell-based, human. Particulars: Caco-2 cells expressing ORF8 or A549 cells expressing Nsp8; 5 μM. (A western blot detects proteins with antibodies after separation by electrophoresis.)
The next data set concerns IFNB1 expression. It counts as cell-based, human. Particulars: 293T cells pre-treated 2 h, Sendai virus infection 9 h.
For a further data set, the system named is NF-κB promoter activity. It counts as cell-based, human. Particulars: 293T cells.
In the next data set the test system is CTP synthesis. It counts as cell-based, human.
Data set [4] relates to antiviral genes IFNB1, ISG56, CCL5 and Mx1. It counts as cell-based, human.
Data set [5] deals with T1, CTPS1. It counts as biochemical. Set-up: made in house. Particulars: with respect to UTP, 2 mM ATP, 2 mM L-glutamine, 0.1 mM GTP, Michaelis-Menten.
Data set [6] addresses T1, CTPS1. The data set can be described thus: Click-based cross-linking, affinity purification and mass spectrometry to identify cellular targets. It counts as binding. On the set-up: endogenous in cells. Particulars: ranked lower than several other proteins; data not shown.
Data set [7] concerns SARS-CoV-2. On the set-up: species or system mice. Particulars: mouse, in vivo, ip, 35 mg/kg.

Read-outs that look alike come from different tables or passages of the source.

For `O=C(CCl)Nc1cccc(C(=O)Nc2ncc[nH]2)c1` [C6], in the data set with IFN-β promoter activity, the “effect on IFN induction, compared with AE-1-10” value (shortened to “effect … compared with AE-1-10”) is given as “modest effect”.

In the case of `C#CCOc1cccc(NC(=O)c2cccc([N+](=O)[O-])c2)c1` [BE-2-10], the “reaction (labeling) with CTPS1” value at CTPS1 [1] is “reacted with CTPS1 in a dose-dependent manner”.

`COc1ccccc1NC(=O)c1cc(NC(=O)CCl)cs1` [B2]: the “reduction of viral RNA abundance compared to the vehicle (DMSO)” value (shortened to “reduction of viral RNA abundance … (DMSO)”) in the data set with SARS-CoV-2 [2] is recorded as ~5 order of magnitude. Also, the “effect on viral titer” value in the data set with SARS-CoV-2 [3] is on record as “reduced viral titer to the limit of detection”.

As for `CCc1ccccc1NC(=O)c1cccc(NC(=O)CCl)c1` [B8], the “reduction of viral RNA abundance relative to C9” value in the data set on SARS-CoV-2 [2] is listed as “significant improvement compared to C9”. Further, in the data set with SARS-CoV-2 [3], the “effect on viral titer” value was “better effect than C9”.

`O=C(Nc1ccccc1)c1ccc([N+](=O)[O-])s1` [C7]: in the data set on IFN-β promoter activity, the “effect … compared with AE-1-10” value is reported as “modest effect”.

With `O=C(CCl)Nc1csc(C(=O)Nc2ccccc2)c1` [C8], the “effect … compared with AE-1-10” value in the data set on IFN-β promoter activity is “improved effect to increase IFN induction”.

On to `[N-]=[N+]=CC(=O)CC[C@H](N)C(=O)O` [DON, 6-diazo-5-oxo-L-norleucine, reference compound], for which, in the data set with IFN-β promoter activity (CTPS1 depleted and control 293T cells), the “Sendai virus-induced IFN-β gene expression” value is on record as “elevated”.

Regarding `COc1cccc(NC(=O)c2cc(NC(=O)CCl)cs2)c1` [B7], the “reduction of viral RNA abundance … (DMSO)” value in the data set on SARS-CoV-2 [2] is ~5 order of magnitude. Also, the “effect on viral titer” value in the data set on SARS-CoV-2 [3] was “reduced viral titer to the limit of detection”.

For `CCCCCNC(=O)c1ccc(NC(=O)CCl)s1` [B1], in the data set on SARS-CoV-2 [2], the “reduction of viral RNA abundance … (DMSO)” value is ~5 order of magnitude. Moreover, the “effect on viral titer” value in the data set on SARS-CoV-2 [3] is “reduced viral titer to the limit of detection”.

With `O=C(CCl)Nc1cccc(C(=O)NC2CCCC2)c1` [B4], in the data set with SARS-CoV-2 [2], the “reduction of viral RNA abundance relative to C9” value is “significant improvement compared to C9”.

For the molecule `COc1cccc(NC(=O)c2cccc(NC(=O)CCl)c2)c1` [AE-1-10], the “inhibition of IRF3 deamidation” value in the data set on IRF3 deamidation is “best efficacy to inhibit IRF3 deamidation”. Further, the IFNB1 expression entry in the data set with IFNB1 expression is given as “increased IFNB1 expression in a dose-dependent manner”. For the same molecule, the IFN induction entry with IFN-β promoter activity (CTPS1-depleted 293T cells) is recorded as “failed to do so”. The IFN induction result in the data set on IFN-β promoter activity (control 293T cells) was “elevated IFN induction”. The NF-κB activation result in the data set with NF-κB promoter activity is given as “no effect”. For the same molecule, in the data set on CTP synthesis, the “[15N]CTP and [15N]CDP” value was “reduced [^15N]CTP and, much more so [^15N]CDP in a dose-dependent manner”; the “intracellular concentration of [15N]CTP and [15N]CDP” value is “reduced the intracellular concentration of [^15N]CTP and [^15N]CDP”. Moreover, in data set [4], the antiviral gene expression result was “elevated antiviral gene expression” and the “expression of antiviral genes (IFNB1, ISG56, CCL5, Mx1)” value is reported as “elevated”. Moreover, the “viral RNA” value in the data set with SARS-CoV-2 [2] is reported as “reduced viral RNA”. For the same molecule, the viral yield entry in the data set on SARS-CoV-2 [3] is “reduced viral RNA and yield”.

Turning to `COc1cccc(N(C)C(=O)c2cccc(NC(=O)CCl)c2)c1` [C2], the “effect … compared with AE-1-10” value with IFN-β promoter activity was “no effect”.

With `COc1ccc(NC(=O)c2cccc(NC(=O)CCl)c2)cc1` [C4], the “effect … compared with AE-1-10” value with IFN-β promoter activity is reported as “improved effect to increase IFN induction”.

A word on the Km: it is the concentration of substrate that gives half-maximal velocity. Turning to “ORF7b: SARS-CoV-2 polypeptide transiently expressed in the 293T cells from which CTPS1 was purified”, in the data set with CTPS1 [5], the Kcat is 0.0147 ± 0.006 s⁻¹ and the Km is 30.5 ± 21.5 mM.

For the molecule `COc1ccccc1NC(=O)c1cccc(NC(=O)CCl)c1` [C5], the “effect … compared with AE-1-10” value with IFN-β promoter activity is recorded as “improved effect to increase IFN induction”. Further, in the data set on SARS-CoV-2 [3], the “antiviral activity in SARS-CoV-2 infection, compared to AE-1-10” value is “more robust antiviral activity”.

For the molecule `C#CCOc1cccc(Nc2ncnc3ccc(NC(=O)CCl)cc23)c1` [Q6ca], the cellular target identification entry at CTPS1 [6] is on record as “identification of CTPS1 as a cellular target”.

As to `CCCCCNC(=O)c1cccc(NC(=O)CCl)c1` [C9], the “effect … compared with AE-1-10” value with IFN-β promoter activity is on record as “improved effect to increase IFN induction”. Also, the “reduction of viral RNA abundance … (DMSO)” value in the data set with SARS-CoV-2 [2] is ~2 order of magnitude. Further, in the data set with SARS-CoV-2 [3], the “antiviral activity in SARS-CoV-2 infection, compared to AE-1-10” value is given as “more robust antiviral activity” and the “reduction of SARS-CoV-2 titer” value is on record as ~3 order of magnitude. The “protection against SARS-CoV-2 infection” value in the data set with SARS-CoV-2 [7] is “protect against infection”.

For the molecule “ORF8: SARS-CoV-2 polypeptide transiently expressed in the 293T cells from which CTPS1 was purified”, in the data set with CTPS1 [5], the Kcat was 0.0212 ± 0.0137 s⁻¹ and the Km is 55.2 ± 50.3 mM.

For the molecule `Cc1ccccc1NC(=O)c1cccc(NC(=O)CCl)c1` [B5], the “reduction of viral RNA abundance relative to C9” value in the data set on SARS-CoV-2 [2] is on record as “significant improvement compared to C9”. The “effect on viral titer” value with SARS-CoV-2 [3] is reported as “better effect than C9”.

For `O=C(CCl)Nc1cccc(C(=O)NC2CCCCC2)c1` [C1], the “effect … compared with AE-1-10” value in the data set on IFN-β promoter activity is “no effect”.
